# Patent US20100234381A1, “BIOMARKERS AND METHODS FOR DETERMINING SENSITIVITY TO VASCULAR ENDOTHELIAL GROWTH FACTOR RECEPTOR-2 MODULATORS” (Bristol-Myers Squibb Company, priority 2007, published 2010)
# Entries after “also recorded” stand apart in the source; their conditions may differ.
# Experiments:
# [1] = system: FGF2-stimulated cancer cell lines; test: FGF2-stimulated tumor cell proliferation, panel of cancer cell lines; assay type: cell-based; details: for Brivanib-resistant (>3 μM) cell lines, number / Brivanib-sensitive (≦3 μM) cell lines, number: following FGF2 stimulation
# Method: […], GEO, L2987, 786-0, A549, A498, Du145, PANC-1, ACHN, HT1197, CALU6, SKOV3, 769-[…], HCT166 and UMUC3. […] Gene expression profiling was performed on RNA samples from tumor cell lines using AFFYMETRIX® GeneChip System.
# [2] = system: FGF2-stimulated cancer cell lines; test: as above; assay type: cell-based; details: following FGF2 stimulation
# [3] = system: advanced or metastatic solid tumors; test: Phase 1 clinical study CA 182-002: tumor response and PFS by FGF2 status; assay type: in vivo, human; details: for patients with progressive disease / patients with a partial response or stable disease: after 56 days of treatment; for patients with a partial response or stable disease: WHO criteria; for median increase in tumor size from baseline: after two cycles of treatment (approximately 56 days)
# Excerpt: All patients gave informed consent for the clinical trial and for this study, which was approved by the appropriate institutional review boards. Inclusion criteria include ECOG 0-1 (S. Javerzat et al., Trends Mol. Med., 8:483 (2002)), adequate bone marrow and hepatic function, and having tumor tissue block or 20 to 30 unstained slides of the initial biopsy available. Exclusion criteria included prior exposure to vascular endothelial growth factor (VEGF) inhibitors, presence of cardiovascular disease, thromboembolism, or bleeding in the last 6 months. All patients enrolled in the clinical trial had previously failed primary and secondary chemotherapy courses. […] Patients' response was measured by quantifying tumor size by contrast enhanced tomography (CT).
# Tumor response was assesses using the modified WHO tumor response criteria. Lesions were evaluated by computed tomography (CT). Lesions were bidimensional and had at least one diameter of >2 cm on standard CT and >1 cm on spiral CT. For bidimensional measurements, the second diameter was perpendicular to the longest diameter. The area of lesion was calculated by multiplying the longest diameter by the greatest perpendicular diameter.
# Tumor blocks were sectioned at 4 μm. Slides were de-paraffined and rehydrated in the LEICA® ST5020 Multistainer. Antigen retrieval was carried out by heating slides with Citra Plus Antigen retrieval solution (BioGenex, Cat # HK080-9K) in a BIOGENEX® EZ-Retriever Microwave at 95° C. for 15 minutes. The slides were then cooled at room temp for 5 minutes, and rinsed with distilled water for three times (˜1 minute each). Slides were immunostained in the i6000 Automated Staining System (BioGennex) using the following conditions: blocking with peroxide block (DAKO, Cat# K4007) for 5 minutes, followed by 5% goat serum for 30 mins, primary antibodies rabbit anti-fibroblast growth factor-2 (FGF-2) (Abcam Cat# #16828) 1:25 or rabbit immunoglobulin G (Rabbit IgG, LabVision, Cat# NC-100-P) 5 μg/ml were added and incubated for 1 hour, followed by Peroxidase Anti-Rabbit IgG (H+L) secondary antibody (Vector, Cat# PI-1000) at 1:200 dilution for 45 minutes. Chromogen substrate DAB (DAKO, Cat# K4007) was added and incubated for 5 minutes. Slides were counterstained with hematoxyline (DAKO cat#53309) for 1 minute. The stained slides were dehydrated and coverslipped in the LEICA® ST5020 Multistainer and assessed by a board-certified pathologist, without knowledge of patients' medical status.
# To compare response rates between the FGF-2(+) and FGF-2(−) groups, a Fisher's exact test was used. To test for differences of percent changes from baseline in tumor between FGF-2(+) and FGF-2(−) groups, a non-parametric Wilcoxon rank-sum test was used (since the assumptions on the marginal distributions for the t-statistic were slightly violated for percent change from baseline, and small sample sizes could increase the test's vulnerability to assumption violations). The same method was applied to test for the difference in percent change from baseline of CIV at Day 8 and Day 26 between the two groups. In addition, a Rank-based ANCOVA was used to investigate the effect of the FGF-2 status on the post-baseline tumor volume, adjusted for the baseline tumor volume. All analyses were performed using R (Y. Shing et al., Science., 223:1296 (1984)).
substance,measurement,setting,value
"[(1R),2S]-2-Aminopropionic acid 2-[4-(4-fluoro-2-methyl-1H-indol-5-yloxy)-5-methylpyrrolo[2,1-f][1,2,4]triazin-6-yloxy]-1-methylethyl ester [brivanib]","Brivanib-resistant (>3 μM) cell lines, number",[1]; Bladder cell lines,2
same,"Brivanib-sensitive (≦3 μM) cell lines, number",[1]; Bladder cell lines,1
same,"Brivanib-sensitive (≦3 μM) cell lines, number",[1]; Colon cell lines,0
same,"Brivanib-sensitive (≦3 μM) cell lines, number",[1]; NSCLC cell lines,2
same,"Brivanib-resistant (>3 μM) cell lines, number",[1]; Prostate cell lines,1
same,"Brivanib-resistant (>3 μM) cell lines, number",[1]; Total of cell lines,10
same,inhibition of FGF2-induced tumor cell proliferation,"[1]; panel of cancer cell lines, in vitro",inhibited FGF2-induced tumor cell proliferation in 16 cancer cell lines; also recorded: inhibits FGF2-induced tumor cell line growth with much lower IC50 values than sunitinib
same,"Brivanib-resistant (>3 μM) cell lines, number",[2]; Colon cell lines,3
same,"Brivanib-resistant (>3 μM) cell lines, number",[2]; NSCLC cell lines,1
same,"Brivanib-resistant (>3 μM) cell lines, number",[2]; Ovarian cell lines,1
same,"Brivanib-sensitive (≦3 μM) cell lines, number",[2]; Ovarian cell lines,1
same,"Brivanib-resistant (>3 μM) cell lines, number",[2]; Pancreatic cell lines,1
same,"Brivanib-sensitive (≦3 μM) cell lines, number",[2]; Pancreatic cell lines,1
same,"Brivanib-sensitive (≦3 μM) cell lines, number",[2]; Prostate cell lines,1
same,"Brivanib-resistant (>3 μM) cell lines, number",[2]; Renal cell lines,1
same,"Brivanib-sensitive (≦3 μM) cell lines, number",[2]; Renal cell lines,3
same,"Brivanib-sensitive (≦3 μM) cell lines, number",[2]; Total of cell lines,9
same,"tumor shrinkage from baseline, FGF2 staining vs negative staining tumors","[3]; Example 1 analysis of CA 182-002, not statistically significant",tend to have more shrinkage than the negative staining tumors
same,"survival, FGF2 positive vs negative tumors (Kaplan-Meier)","[3]; Example 1 analysis of CA 182-002, p value 0.475",tended to have a survival advantage
same,Mean change in tumor size (%) (~8 wks) High (≧600 mg) (n = 26),[3]; FGF2+ patients (n = 24),0.9%
same,Mean change in tumor size (%) (~8 wks) Low (<600 mg) (n = 17),[3]; FGF2+ patients (n = 24),28%
same,Median PFS (days) High (≧600 mg) (n = 26),[3]; FGF2+ patients (n = 24),107 days
same,Median PFS (days) Low (<600 mg) (n = 17),[3]; FGF2+ patients (n = 24),71 days
same,"PD, number of patients",[3]; FGF2+ patients (n = 24),9
same,"PR, number of patients",[3]; FGF2+ patients (n = 24),2
same,Mean change in tumor size (%) (~8 wks) High (≧600 mg) (n = 26),[3]; FGF2− patients (n = 19),24%
same,Mean change in tumor size (%) (~8 wks) Low (<600 mg) (n = 17),[3]; FGF2− patients (n = 19),71%
same,Median PFS (days) High (≧600 mg) (n = 26),[3]; FGF2− patients (n = 19),56 days
same,Median PFS (days) Low (<600 mg) (n = 17),[3]; FGF2− patients (n = 19),54 days
same,"PD, number of patients",[3]; FGF2− patients (n = 19),14
same,"PR, number of patients",[3]; FGF2− patients (n = 19),0
same,"reduction of tumor growth, FGF-2(+) compared with FGF-2(−) patients",[3]; patients with FGF-2(+) tumors,three-fold
same,patients with progressive disease,[3]; patients with FGF-2(+) tumors,9 out of 24
same,patients with a partial response or stable disease,[3]; patients with FGF-2(+) tumors,62.5%
same,median increase in tumor size from baseline,[3]; patients with FGF-2(+) tumors,1%
same,patients with progressive disease,[3]; patients with FGF-2(−) tumors,14 out of 19
same,median increase in tumor size from baseline,[3]; patients with FGF-2(−) tumors,36%
same,patients with a partial response or stable disease,[3]; patients with FGF-2− tumors,26.3%
